# From patent publication US11180504B2 (ORCHID PHARMA LTD., priority 2016, dated 2021)
# Like-named read-outs stand apart in the source and are kept apart here.
# Experiments:
# [1] = tested on: carbapenem sensitive Pseudomonas aeruginosa; test: MIC by broth micro-dilution (CLSI), carbapenem sensitive P. aeruginosa; type: cell-based
# [2] = tested on: methicillin-sensitive Staphylococcus aureus; test: MIC by broth micro-dilution (CLSI), methicillin-sensitive S. aureus; type: cell-based; details: MSSA S. aureus ATCC29213
# [3] = tested on: carbapenemase producing K. pneumoniae; test: MIC by broth micro-dilution (CLSI), carbapenemase producing K. pneumoniae; type: cell-based, Klebsiella pneumoniae
# [4] = tested on: carbapenem sensitive Escherichia coli; test: MIC by broth micro-dilution (CLSI), carbapenem sensitive E. coli; type: cell-based
# [5] = Meropenem susceptible P. aeruginosa ATCC27853
# [6] = KPC-2 K. pneumoniae ATCC BAA-1705
# [7] = Pseudomonas aeruginosa, ATCC27853, Meropenem susceptible P. aeruginosa ATCC27853, read-out: MIC
# [8] = Staphylococcus aureus, ATCC29213|MSSA, read-out: MIC
# [9] = Klebsiella pneumoniae, ATCCBAA1705, KPC-2 K. pneumoniae ATCC BAA-1705, read-out: MIC
# [10] = Escherichia coli, ATCC25922, ESBL −ve E. coli ATCC25922, read-out: MIC
# [11] = Staphylococcus aureus, ATCC 29213 / MSSA, read-out: MIC
smiles,measurement,setting,value
"C[C@@H](NC(=O)Cn1cnnn1)[C@H]1C(=O)N2C(C(=O)O)=C(S[C@@H]3CN[C@H](C(=O)N4CC5(CC(N)CO5)C4)C3)[C@H](C)[C@H]12 (single isomer, unassigned) [Example 531]",MIC,[1]; [5],1 µg/mL
same,MIC,[2],4 µg/mL
same,MIC,[3]; [6],2 µg/mL
same,MIC,[4]; ESBL −ve E. coli ATCC25922,0.125 µg/mL
"C[C@@H](NC(=O)Cn1cnnn1)[C@H]1C(=O)N2C(C(=O)O)=C(S[C@@H]3CN[C@H](C(=O)N4CCC5CN(C[C@@H](O)CN)CCC54)C3)[C@H](C)[C@H]12 (single isomer, unassigned) [Example 532]",MIC,[1]; [5],2 µg/mL
same,MIC,[2],4 µg/mL
same,MIC,[3]; [6],2 µg/mL
same,MIC,[4]; ESBL −ve E. coli ATCC25922,0.25 µg/mL
"C[C@@H](NC(=O)Cn1cnnn1)[C@H]1C(=O)N2C(C(=O)O)=C(S[C@@H]3CN[C@H](C(=O)N4CCC5CNCC5C4)C3)[C@H](C)[C@H]12 (single isomer, unassigned) [Example 533]",MIC,[1]; [7],2 µg/mL
same,MIC,[2]; [8],4 µg/mL
same,MIC,[3]; [9],2 µg/mL
same,MIC,[4]; [10],0.25 µg/mL
"C[C@@H](NC(=O)Cn1cnnn1)[C@H]1C(=O)N2C(C(=O)O)=C(S[C@@H]3CN[C@H](C(=O)N4CCC5CNCC5C4)C3)[C@H](C)[C@H]12 (single isomer, unassigned) [Example 534]",MIC,[1]; [5],1 µg/mL
same,MIC,[2],2 µg/mL
same,MIC,[3]; [6],1 µg/mL
same,MIC,[4]; ESBL −ve E. coli ATCC25922,0.125 µg/mL
"C[C@@H](NC(=O)Cn1cnnn1)[C@H]1C(=O)N2C(C(=O)O)=C(S[C@@H]3CN[C@H](C(=O)N4CCC5CNCC5(CO)C4)C3)[C@H](C)[C@H]12 (single isomer, unassigned) [Example 535]",MIC,[1]; [7],1 µg/mL
same,MIC,[2]; [8],2 µg/mL
same,MIC,[3]; [9],2 µg/mL
same,MIC,[4]; [10],0.25 µg/mL
"C[C@@H](NC(=O)Cn1cnnn1)[C@H]1C(=O)N2C(C(=O)O)=C(S[C@@H]3CN[C@H](C(=O)N4CCC5CNCC5(CO)C4)C3)[C@H](C)[C@H]12 (single isomer, unassigned) [Example 537]",MIC,[1]; [5],2 µg/mL
same,MIC,[2],4 µg/mL
same,MIC,[3]; [6],2 µg/mL
same,MIC,[4]; ESBL −ve E. coli ATCC25922,0.25 µg/mL
"C[C@@H](NC(=O)Cn1cnnn1)[C@H]1C(=O)N2C(C(=O)O)=C(S[C@@H]3CN[C@H](C(=O)N4CC5CCNCC5(CO)C4)C3)[C@H](C)[C@H]12 (single isomer, unassigned) [Example 539]",MIC,[1]; [7],2 µg/mL
same,MIC,[2]; [11],4 µg/mL
same,MIC,[3]; [9],1 µg/mL
same,MIC,[4]; [10],0.25 µg/mL
"C[C@@H](NC(=O)Cn1cnnn1)[C@H]1C(=O)N2C(C(=O)O)=C(S[C@@H]3CN[C@H](C(=O)N4CC5CCNCC5(CO)C4)C3)[C@H](C)[C@H]12 (single isomer, unassigned) [Example 542]",MIC,[1]; [5],2 µg/mL
same,MIC,[2],4 µg/mL
same,MIC,[3]; [6],2 µg/mL
same,MIC,[4]; ESBL −ve E. coli ATCC25922,0.25 µg/mL
"C[C@@H](NC(=O)Cn1cnnn1)[C@H]1C(=O)N2C(C(=O)O)=C(S[C@@H]3CN[C@H](C(=O)N4CC5CC(CO)NC5C4)C3)[C@H](C)[C@H]12 (single isomer, unassigned) [Example 551]",MIC,[1]; [7],2 µg/mL
same,MIC,[2]; [11],4 µg/mL
same,MIC,[3]; [9],2 µg/mL
same,MIC,[4]; [10],0.25 µg/mL
"C[C@@H](NC(=O)Cn1cnnn1)[C@H]1C(=O)N2C(C(=O)O)=C(S[C@@H]3CN[C@H](C(=O)N4CC5CCNC5(CO)C4)C3)[C@H](C)[C@H]12 (single isomer, unassigned) [Example 555]",MIC,[1]; [7],2 µg/mL
same,MIC,[2]; [11],4 µg/mL
same,MIC,[3]; [9],1 µg/mL
same,MIC,[4]; [10],0.25 µg/mL
"C[C@@H](NC(=O)Cn1cnnn1)[C@H]1C(=O)N2C(C(=O)O)=C(S[C@@H]3CN[C@H](C(=O)N4CC5CCNC5(CO)C4)C3)[C@H](C)[C@H]12 (single isomer, unassigned) [Example 556]",MIC,[1]; [5],4 µg/mL
same,MIC,[2],2 µg/mL
same,MIC,[3]; [6],1 µg/mL
same,MIC,[4]; ESBL −ve E. coli ATCC25922,0.125 µg/mL
"C[C@@H](NC(=O)Cn1cnnn1)[C@H]1C(=O)N2C(C(=O)O)=C(SC3COC4(CNC4)C3)[C@H](C)[C@H]12 (single isomer, unassigned) [Example 557]",MIC,[1]; [5],16 µg/mL
same,MIC,[2],4 µg/mL
same,MIC,[3]; [9],4 µg/mL
same,MIC,[4]; ESBL −ve E. coli ATCC25922,0.125 µg/mL
"C[C@@H](NC(=O)Cn1cnnn1)[C@H]1C(=O)N2C(C(=O)O)=C(SC3COC4(CNC4)C3)[C@H](C)[C@H]12 (single isomer, unassigned) [Example 558]",MIC,[1]; [5],128 µg/mL
same,MIC,[2],16 µg/mL
same,MIC,[3]; [6],2 µg/mL
same,MIC,[4]; ESBL −ve E. coli ATCC25922,0.5 µg/mL
"C[C@@H](NC(=O)Cn1cnnn1)[C@H]1C(=O)N2C(C(=O)O)=C(S[C@@H]3CN[C@H](C(=O)N4CCC5CN(C(=N)N)CCC54)C3)[C@H](C)[C@H]12 (single isomer, unassigned) [Example 559]",MIC,[1]; [5],4 µg/mL
same,MIC,[2]; [11],1 µg/mL
same,MIC,[3]; [9],1 µg/mL
same,MIC,[4]; [10],0.25 µg/mL
"C[C@@H](NC(=O)Cn1cnnn1)[C@H]1C(=O)N2C(C(=O)O)=C(S[C@@H]3CN[C@H](C(=O)N4CCC5CN(C(=N)N)CCC54)C3)[C@H](C)[C@H]12 (single isomer, unassigned) [Example 560]",MIC,[1]; [5],1 µg/mL
same,MIC,[2],1 µg/mL
same,MIC,[3]; [6],0.5 µg/mL
same,MIC,[4]; ESBL −ve E. coli ATCC25922,0.125 µg/mL
"C[C@@H](NC(=O)Cn1cnnn1)[C@H]1C(=O)N2C(C(=O)O)=C(S[C@@H]3CN[C@H](C(=O)N4CCC5CNCC54CO)C3)[C@H](C)[C@H]12 (single isomer, unassigned) [Example 561]",MIC,[1]; [7],8 µg/mL
same,MIC,[2]; [11],4 µg/mL
same,MIC,[3]; [9],2 µg/mL
same,MIC,[4]; [10],0.5 µg/mL
"C[C@@H](NC(=O)Cn1cnnn1)[C@H]1C(=O)N2C(C(=O)O)=C(S[C@@H]3CN[C@H](C(=O)N4CC5CCN(C(=N)N)C5C4)C3)[C@H](C)[C@H]12 (single isomer, unassigned) [Example 569]",MIC,[1]; [7],2 µg/mL
same,MIC,[2]; [11],2 µg/mL
same,MIC,[3]; [9],1 µg/mL
same,MIC,[4]; [10],0.25 µg/mL
"C[C@@H](NC(=O)Cn1cnnn1)[C@H]1C(=O)N2C(C(=O)O)=C(S[C@@H]3CN[C@H](C(=O)N4CC5CCN(C(=N)N)C5C4)C3)[C@H](C)[C@H]12 (single isomer, unassigned) [Example 570]",MIC,[1]; [5],2 µg/mL
same,MIC,[2],1 µg/mL
same,MIC,[3]; [6],1 µg/mL
same,MIC,[4]; ESBL −ve E. coli ATCC25922,0.125 µg/mL
"C[C@@H](NC(=O)Cn1cnnn1)[C@H]1C(=O)N2C(C(=O)O)=C(S[C@@H]3CN[C@H](C(=O)N4CCC(C(=O)NCC(O)CN)CC4)C3)[C@H](C)[C@H]12 (single isomer, unassigned) [Example 572]",MIC,[1]; [5],4 µg/mL
same,MIC,[2]; [11],4 µg/mL
same,MIC,[3]; [9],2 µg/mL
same,MIC,[4]; [10],0.25 µg/mL
"C[C@@H](NC(=O)Cn1cnnn1)[C@H]1C(=O)N2C(C(=O)O)=C(S[C@@H]3CN[C@H](C(=O)N4CCC(C(=O)NCC(O)CN)CC4)C3)[C@H](C)[C@H]12 (single isomer, unassigned) [Example 573]",MIC,[1]; [5],1 µg/mL
same,MIC,[2],4 µg/mL
same,MIC,[3]; [6],2 µg/mL
same,MIC,[4]; ESBL −ve E. coli ATCC25922,0.125 µg/mL
"C[C@@H](NC(=O)Cn1cnnn1)[C@H]1C(=O)N2C(C(=O)O)=C(S[C@@H]3CN[C@H](C(=O)N4CC5CCN(CCN)C5C4)C3)[C@H](C)[C@H]12 (single isomer, unassigned) [Example 578]",MIC,[1]; [7],4 µg/mL
same,MIC,[2]; [11],2 µg/mL
same,MIC,[3]; [9],1 µg/mL
same,MIC,[4]; [10],0.25 µg/mL
"C[C@@H](NC(=O)Cn1cnnn1)[C@H]1C(=O)N2C(C(=O)O)=C(S[C@@H]3CN[C@H](C(=O)N4CC(N)C(CO)C4)C3)[C@H](C)[C@H]12 (single isomer, unassigned) [Example 586]",MIC,[1]; [7],2 µg/mL
same,MIC,[2]; [11],4 µg/mL
same,MIC,[3]; [9],1 µg/mL
same,MIC,[4]; [10],0.25 µg/mL
"C[C@@H](NC(=O)Cn1cnnn1)[C@H]1C(=O)N2C(C(=O)O)=C(S[C@@H]3CN[C@H](C(=O)N4CC(N)C(CO)C4)C3)[C@H](C)[C@H]12 (single isomer, unassigned) [Example 587]",MIC,[1]; [5],2 µg/mL
same,MIC,[2],4 µg/mL
same,MIC,[3]; [6],2 µg/mL
same,MIC,[4]; ESBL −ve E. coli ATCC25922,0.25 µg/mL
"C[C@@H](NC(=O)Cn1cnnn1)[C@H]1C(=O)N2C(C(=O)O)=C(S[C@@H]3CN[C@H](C(=O)N4CC5CNC5C4)C3)[C@H](C)[C@H]12 (single isomer, unassigned) [Example 590]",MIC,[1]; [7],1 µg/mL
same,MIC,[2]; [11],4 µg/mL
same,MIC,[3]; [9],1 µg/mL
same,MIC,[4]; [10],0.25 µg/mL
"C[C@@H](NC(=O)Cn1cnnn1)C1C(=O)N2C(C(=O)O)=C(S[C@@H]3CN[C@H](C(=O)N4CCN(C[C@@H](F)CN)CC4)C3)[C@H](C)C12 (stereo in doubt) [Example 462, (4R,5S,6R)-6-((R)-1-(2-(1H-tetrazol-1-yl)acetamido)ethyl)-3-((3S,5S)-5-(4-((S)-3-amino-2-fluoropropyl)piperazine-1-carbonyl)pyrrolidin-3-ylthio)-4-methyl-7-oxo-1-azabicyclo[3.2.0]hept-2-ene-2-carboxylic acid]",MIC,[1]; [7],2 µg/mL
same,MIC,[2]; [11],4 µg/mL
same,MIC,[3]; [9],1 µg/mL
same,MIC,[4]; [10],0.25 µg/mL
"C[C@@H](NC(=O)CC1CCCN1)[C@H]1C(=O)N2C(C(=O)O)=C(S[C@@H]3CN[C@H](C(=O)N4CCC(N)C4)C3)[C@H](C)[C@H]12 (stereo in doubt) [Example 509, (4R,5S,6R)-3-((3S,5S)-5-((R)-3-aminopyrrolidine-1-carbonyl)pyrrolidin-3-ylthio)-4-methyl-7-oxo-6-((R)-1-(2-((S)-pyrrolidin-2-yl)acetamido)ethyl)-1-azabicyclo[3.2.0]hept-2-ene-2-carboxylic acid]",MIC,[1]; [7],32 µg/mL
same,MIC,[2]; [11],32 µg/mL
same,MIC,[3]; [9],4 µg/mL
same,MIC,[4]; [10],4 µg/mL
